# Laboratory results taken from patent US20170118998A1, “PESTICIDAL COMPOSITIONS AND METHODS FOR USING SAME” (priority 1998, published 2017).
# Key:
# Assay type in all cases: in vivo
# [1] = tested on: Melon Aphids Aphis gossypii; assay: Melon Aphids on squash (Table 11); settings: 1 qt/acre, applied three times at one week interval
# Description: A formulation (DR-A-034) consisting of 5% w/w rosemary oil, 22.5% w/w wintergreen oil, 22.5% w/w mineral oil, 0.5% w/w lecithin (emulsifier), and 49.5% w/w water was prepared and labeled Hexacide™. Hexacide™ was applied in dilute form at different rates per acre to the pests itemized below in various greenhouse and field studies. In all of these studies, positive controls consisting of conventional pesticides were utilized for comparative efficacy.
# Randomized complete block design was used. Five replicates per treatment were performed. 100 gallons spray volume per acre (GPA). Latron CS-7 at 4 ml/gallon was added to all treatments. All foliar applied pesticidal compositions applied, except Admire and Platinum (soil insecticides). HEXACIDE™ Azadiractin and Pyganic applied three times at one week interval. Other products applied once.
# American cockroaches [2] = assay: Test chemical applied directly to thorax of insect using Pasteur Pipette (Table 12); settings: 1 drop applied directly to thorax; one value per insect
# American cockroaches [3] = assay: Direct spray toxicity of rosemary oil, wintergreen oil and their blend (Example 1); settings: sprayed with approximately 3.7 grams; one value per insect
# Description: Studies were conducted to evaluate the individual toxicity, in terms of speed of action and mortality, of rosemary oil and wintergreen oil against American cockroaches, and then a blend of these two oils to determine if similar toxic effects could be obtained using a proprietary blend that was less expensive to produce and easier to employ in different end-use formulations. Methyl salicylate was used as wintergreen oil. American cockroaches were confined under a screened cap and then sprayed with approximately 3.7 grams of each test chemical using a trigger sprayer. Immediately after spraying, the insects were released into a large plastic container and observed for signs of toxicity. Three American cockroaches were used in each experiment. The times for immobilization (IM), knockdown (KD), and mortality were recorded for each test insect. An untreated control was provided.
SMILES,Mean % Aphids per Leaf ([1]; 6 DAT) [c %],Mean % Aphids per Leaf ([1]; 12 DAT) [c %],Mean % Aphids per Leaf ([1]; Pretreatment) [b %],KD (knockdown time) (American cockroaches [2]),Mortality (time) (American cockroaches [2]) [m],IM (time for immobilization) (American cockroaches [3]) [s],Mortality (time) (American cockroaches [3]) [min]
C/C=C(\C)C(=O)O[C@H]1C[C@@H](OC(C)=O)[C@@]2(C(=O)OC)CO[C@H]3[C@@H](O)[C@@](C)([C@]45O[C@@]4(C)[C@H]4C[C@@H]5O[C@@H]5OC=C[C@@]54O)[C@H]4[C@]1(CO[C@]4(O)C(=O)OC)[C@@H]32 [Azadiractin],5.4,15.1,3.9,,,,
"COC(=O)c1ccccc1O [100% Methyl Salicylate, Methyl salicylate]",,,,no KD,>5,45,>2
